Reference: US7138411B2, “Substituted benzopyran derivatives for the treatment of inflammation” (G.D. Searle & Co., priority 1997, dated 2006)
Counter-ions that a name gives are not always drawn.

`O=C(O)C1=Cc2cc(Cl)cc(CO)c2OC1C(F)(F)F` (stereo not drawn) [Example 109, 6-Chloro-8-(hydroxymethyl)-2-(trifluoramethyl)-2H-1-benzopyran-3-carboxylic acid] gave a melting point of 174.6 to 178.9 °C. Molecule `O=C(O)C1=Cc2cc(Cl)c(Oc3ccc(Cl)c(F)c3)cc2OC1C(F)(F)F` (stereo not drawn) [Example 205, 6-Chloro-7-(4-chloro-3-fluorophenoxy)-2-(trifluoromethyl)-2H-1-benzapyran-3-carboxylic acid] has a melting point of 206.8 to 207.4 °C. `N#Cc1cc(Cl)cc2c1OC(C(F)(F)F)C(C(=O)O)=C2` (stereo not drawn) [Example 107, 6-Chloro-8-cyano-2-(trifluoromethyl)-2H-1-benzopyran-3-carboxylic acid] showed a melting point of 238.1 to 239.7 °C. Molecule `CCc1ccc2c(c1)OC(C(F)(F)F)C(C(=O)O)=C2` (stereo not drawn) [Example 85, 7-Ethyl-2-trifluoromethyl-2H-1-benzopyran-3-carboxylic acid] has a melting point of 167 to 168.6 °C. Work on `O=C(O)C1=Cc2cc(-c3ccc(Cl)cc3)ccc2OC1C(F)(F)F` (stereo not drawn) [Example 137, 6-(4-Chlorophenyl)-2-(trifluoromethyl)-2H-1-benzopyran-3-carboxylic acid] yielded a melting point of 212 to 213 °C. For `N#Cc1ccc(CN2c3ccc(Cl)cc3C=C(C(=O)O)C2C(F)(F)F)cc1` (stereo not drawn) [Example 169, 6-Chloro-1-[(4-cyanophenyl)methyl]-1,2-dihydro-2-(trifluoromethyl)-3-quinolinecarboxylic acid], the melting point was 258 to 260 °C. `Cc1ncc(CO)c2c1OC(C(F)(F)F)C(C(=O)O)=C2` (stereo not drawn) [Example 90, 5-(Hydroxymethyl)-8-methyl-2-(trifluoromethyl)-2H-pyrano[2,3-c]pyridine-3-carboxylic acid] gave a melting point of 76.1 to 80.1 °C. For `O=C(O)C1=Cc2cc(Oc3ccc(Cl)cc3)cc(Cl)c2OC1C(F)(F)F` (stereo not drawn) [Example 100], the melting point was 227.8 to 228.9 °C. Work on `O=Cc1cc(Cl)cc2c1OC(C(F)(F)F)C(C(=O)O)=C2` (stereo not drawn) [Example 76, 6-Chloro-8-Formyl-2-(trifluoromethyl)-2H-1-benzopyran-3-carboxylic acid] yielded a melting point of 243.3 to 252.4 °C. `C=CC1=C(C(=O)O)C(C(F)(F)F)Oc2ccc(Cl)cc21` (stereo not drawn) [Example 142, 6-Chloro-2-(trifluoromethyl)-4-ethenyl-2H-1-benzopyran-3-carboxylic acid] showed a melting point of 143 to 145 °C. Work on `O=C(O)C1=Cc2cc(Cl)ccc2N(Cc2ccc(C(F)(F)F)cc2)C1C(F)(F)F` (stereo not drawn) [Example 166, 6-Chloro-1,2-dihydro-2-(trifluoromethyl)-1-[[4-(trifluoromethyl)phenyl]methyl]-3-quinolinecarboxylic acid] yielded a melting point of 229 to 231 °C. In the case of `O=C(O)C1=Cc2cc(-c3ccc(Cl)s3)ccc2OC1C(F)(F)F` (stereo not drawn) [Example 135, 6-(5-Chloro-2-thienyl)-2-(trifluoramethyl)-2H-1-benzopyran-3-carboxylic acid], the melting point is reported as 205 to 206 °C. Molecule `O=C(O)C1=Cc2cc(Cl)ccc2N(Cc2ccc(Cl)cc2)C1C(F)(F)F` (stereo not drawn) [Example 167, 6-Chloro-1-[(4-Chlorophenyl)methyl]-1,2-dihydro-2-(trifluoromethyl)-3-quinolinecarboxylic acid] has a melting point of 250 to 253 °C. `O=C(O)C1=Cc2ccc(Cl)cc2OC1C(F)(F)F` (stereo not drawn) [Example 72, 7-Chloro-2-trifluoromethyl-2H-1-benzopyran-3-carboxylic acid] showed a melting point of 175.2 to 177.6 °C. Molecule `COc1c(Cl)cc2c(c1Cl)OC(C(F)(F)F)C(C(=O)O)=C2` (stereo not drawn) [Example 61, 6,8-Dichloro-7-methoxy-2-trifluoromethyl-2H-1-benzopyran-3-carboxylic acid] has a melting point of 195.6 to 199.1 °C. In the case of `COc1cccc2c1C=C(C(=O)O)C(C(F)(F)F)O2` (stereo not drawn) [Example 95, 5-Methoxy-2-(trifluoromethyl)-2H-1-benzopyran-3-carboxylic acid], the melting point is reported as 204.5 to 206.7 °C. Work on `O=C(O)C1=Cc2cc(CO)ccc2OC1C(F)(F)F` (stereo not drawn) [Example 80, 6-Hydroxymethyl-2-(trifluoromethyl)-2H-1-benzopyran-3-carboxylic acid] yielded a melting point of 177.5 to 180.8 °C. `O=C(O)C1=Cc2cc3c(cc2OC1C(F)(F)F)OCO3` (stereo not drawn) [Example 92, 6-(Trifluoromethyl)-6H-1,3-dioxolo[4,5-g][1]benzopyran-7-carboxylic acid] gave a melting point of 245.8 to 247.8 °C. For `CCN(CC)S(=O)(=O)c1ccc2c(c1)C=C(C(=O)O)C(C(F)(F)F)O2` (stereo not drawn) [Example 58, 6-N,N-Diethylaminosulfonyl-2-trifluoromethyl-2H-1-benzopyran-3-carboxylic acid], the melting point was 238 to 240 °C. With `Cc1cc(C)c2c(c1)C=C(C(=O)O)C(C(F)(F)F)S2` (stereo not drawn) [Example 146, 6,8-Dimethyl-2-(trifluoromethyl)-2H-1-benzothiopyran-3-carboxylic acid] the melting point was 220 to 225 °C (dec.). Molecule `COc1cccc(-c2cc(Cl)cc3c2OC(C(F)(F)F)C(C(=O)O)=C3)c1` (stereo not drawn) [Example 126, 6-Chloro-8-(3-methoxyphenyl)-2-(trifluoromethyl)-2H-1-benzopyran-3-carboxylic acid] has a melting point of 173.1 to 177.4 °C. Molecule `CCc1cccc2c1OC(C(F)(F)F)C(C(=O)O)=C2` (stereo not drawn) [Example 28, 8-Ethyl-2-trifluoromethyl-2H-1-benzopyran-3-carboxylic acid] has a melting point of 185.4 to 186.8 °C. In the case of `CC(C)Oc1ccc2c(c1)OC(C(F)(F)F)C(C(=O)O)=C2` (stereo not drawn) [Example 20, 7-Isopropyloxy-2-trifluoromethyl-2H-1-benzopyran-3-carboxylic acid], the melting point is reported as 161 to 163 °C. Molecule `O=C(O)C1=Cc2cc(-c3cccs3)ccc2OC1C(F)(F)F` (stereo not drawn) [Example 136, 6-(2-thienyl)-2-(trifluoromethyl)-2H-1-benzopyran-3-carboxylic acid] has a melting point of 209 to 212 °C. For `O=C(O)C1=Cc2cc(Cl)cc(I)c2OC1C(F)(F)F` (stereo not drawn) [Example 73, 6-Chloro-8-iodo-2-(trifluoramethyl)-2H-1-benzopyran-3-carboxylic acid], the melting point was 220 to 223 °C. `O=C(O)C1=Cc2cc(S(=O)(=O)NCc3ccco3)ccc2OC1C(F)(F)F` (stereo not drawn) [Example 69, 6-[[(2-Furanylmethyl)amino]sulfonyl]-2-(trifluoromethyl)-2H-1-benzopyran-3-carboxylic acid] gave a melting point of 170 to 173 °C. `O=C(O)C1=Cc2cc(Cl)cc(COCc3ccccc3)c2OC1C(F)(F)F` (stereo not drawn) [Example 113, 6-Chloro-8-(benzyloxymethyl)-2-(trifluoromethyl)-2H-1-benzopyran-3-carboxylic acid] gave a melting point of 133.8 to 135.4 °C. `O=C(O)C1=Cc2cc(-c3ccc(F)cc3)ccc2OC1C(F)(F)F` (stereo not drawn) [Example 131, 6-(4-Fluorophenyl)-2-(trifluoromethyl)-2H-1-benzopyran-3-carboxylic acid] gave a melting point of 207 to 210 °C. `O=C(O)C1=C(c2cccs2)c2cc(Cl)ccc2OC1C(F)(F)F` (stereo not drawn) [Example 144, 6-Chloro-4-(2-thienyl)-2-(trifluoromethyl)-2H-1-benzopyran-3-carboxylic acid] gave a melting point of 200.8 to 206.7 °C. Work on `O=C(O)C1=Cc2ccc(Cl)cc2SC1C(F)(F)F` (stereo not drawn) [Example 153, 7-Chloro-2-(trifluoromethyl)-2H-1-benzothiopyran-3-carboxylic acid] yielded a melting point of 225.7 to 227.3 °C. Work on `O=C(O)C1=Cc2cc(Cl)cc(-c3nc4ccccc4[nH]3)c2OC1C(F)(F)F` (stereo not drawn) [Example 110, 8-(1H-Benzimidazol-2-yl)-6-chloro-2-(trifluoromethyl)-2H-1-benzopyran-3-carboxylic acid] yielded a melting point of over 300 °C. For `CCN(CC)c1ccc2c(c1)OC(C(F)(F)F)C(C(=O)O)=C2` (stereo not drawn) [Example 48, 7-(N,N-Diethylamino)-2-trifluoromethyl-2H-1-benzopyran-3-carboxylic acid], the melting point was 214.4 to 215.4 °C. `O=C(O)C1=Cc2cc(C#Cc3ccccc3)ccc2OC1C(F)(F)F` (stereo not drawn) [Example 124, 6-(Phenylethynyl)-2-(trifluoromethyl)-2H-1-benzopyran-3-carboxylic acid] gave a melting point of 240.1 to 241.3 °C. Work on `O=C(O)C1=Cc2cc(Cl)cc(/C=N/O)c2OC1C(F)(F)F` (stereo not drawn) [Example 108, 6-Chloro-8-[(hydroxyimino)methyl]-2-(trifluoromethyl)-2H-1-benzopyran-3-carboxylic acid] yielded a melting point of 246.9 to 247.9 °C. Molecule `COc1ccc(C#Cc2cc(Cl)cc3c2OC(C(F)(F)F)C(C(=O)O)=C3)cc1` (stereo not drawn) [Example 123, 6-Chloro-8-[(4-methoxyphenyl)ethynyl]-2-(trifluoromethyl)-2H-1-benzopyran-3-carboxylic acid] has a melting point of 217.7 to 218.7 °C. Molecule `NS(=O)(=O)c1ccc2c(c1)C=C(C(=O)O)C(C(F)(F)F)O2` (stereo not drawn) [Example 51, 6-Aminosulfonyl-2-trifluoromethyl-2H-1-benzopyran-3-carboxylic acid] has a melting point of 187.9 to 189.8 °C. Molecule `O=C(O)C1=Cc2ccc(Cl)c(Cl)c2OC1C(F)(F)F` (stereo not drawn) [Example 19, 7,8-Dichloro-2-trifluoromethyl-2H-1-benzopyran-3-carboxylic acid] has a melting point of 219.5 to 220.9 °C. Work on `CCC1=C(C(=O)O)C(C(F)(F)F)Oc2ccc(Cl)cc21` (stereo not drawn) [Example 212, 6-Chloro-4-ethyl-2-trifluoromethyl-2H-1-benzopyran-3-carboxylic acid] yielded a melting point of 170.9 to 172.1 °C. Work on `O=C(O)C1=Cc2cc(Cl)c(Oc3cccc(C(=O)O)c3)cc2OC1C(F)(F)F` (stereo not drawn) (as salt: potassium) [Example 208, 7-(3-Carboxyphenoxy)-6-chloro-2-(trifluoromethyl)-2H-1-benzopyran-3-carboxylic acid] yielded a melting point of 288.1 to 289.2 °C. With `COc1ccc(-c2cc(Cl)cc3c2OC(C(F)(F)F)C(C(=O)O)=C3)cc1` (stereo not drawn) [Example 141, 6-Chloro-8-(4-methoxyphenyl)-2-trifluoromethyl-2H-1-benzopyran-3-carboxylic acid] the melting point was 194 to 196 °C. With `CC(C)(C)C#Cc1cc(Cl)cc2c1OC(C(F)(F)F)C(C(=O)O)=C2` (stereo not drawn) [Example 121, 6-Chloro-8-(3,3-dimethyl-1-butynyl)-2-(trifluoromethyl)-2H-1-benzopyran-3-carboxylic acid] the melting point was 218.3 to 222.4 °C. In the case of `CC(C)(C)c1cc2c(cc1Br)C=C(C(=O)O)C(C(F)(F)F)O2` (stereo not drawn) [Example 77, 6-Bromo-7-(1,1-dimethylethyl)-2-(trifluoromethyl)-2H-1-benzopyran-3-carboxylic acid], the melting point is reported as 198.6 to 199.9 °C.
